From PMC12040169 (PLOS Biology, 2025) come the findings set out here.

In data set [1] the test system is T1, CTL2-GFP (C. trachomatis L2/434/Bu, GFP-expressing).
T1 construct: L2/434/Bu, GFP-expressing
Briefly: microbe, parasite or virus in culture. Also noted: Intracellular C. trachomatis growth in HeLa cells, bulk GFP fluorescence relative to DMSO. Conditions: Chlamydia trachomatis, HeLa, 28.5 h; bulk GFP, mean of 2; read-out: % of control remaining. As to the method:
MICs were calculated as described above.

Data set [2] is described as follows: in vitro. Also noted: Viability of infected HeLa host cells, resazurin conversion, bulk resorufin fluorescence relative to DMSO. The note with it: human, hela cells; bulk resorufin, mean of 2.
For data set [3], the system named is T2, C. trachomatis L2/434/Bu expressing GFP (CTL2-GFP).
T2 construct: L2/434/Bu GFP intracellular growth in HeLa cells
The data set can be described thus: microbe, parasite or virus in culture. The note with it: Chlamydia trachomatis, HeLa, 28.5 h; total inclusion area; read-out: % of control remaining. Also noted: C. trachomatis total inclusion area by high-content imaging, normalised to DMSO. The method in brief:
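Infected cells treated with library compounds were read for bulk GFP (chlamydial growth) and resorufin fluorescence (host viability), then fixed, Hoechst-stained and imaged. Inclusion area and number from GFP, plus nuclei counts, served as additional growth and viability proxies; MICs derived as previously described.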

Take `CC(=O)NC[C@H]1CN(c2ccc(C#N)c(C)c2)C(=O)O1` [CBK010393]: in data set [1], the activity at 1 µM was determined as 120%, the activity at 5 µM is 98% and the activity at 10 µM turned out to be 55.2%. Moreover, in data set [2], the viability at 28.5 h, 1 µM amounted to 89.7%; the viability at 28.5 h, 5 µM is 90.3%; the viability at 28.5 h, 10 µM turned out to be 89.8%. In addition, in data set [3], the activity at 1 µM amounted to 102%, the activity at 5 µM is 94.2% and the activity at 10 µM came to 42.5%.
Consider `c1c(C2CC2)[nH]c2nc(N3CCCC3)nc(N3CCCC3)c12` [CBK016707G], for which, in data set [1], the activity at 1 µM was determined as 3.94%, the activity at 5 µM was found to be 11.1% and the activity at 10 µM was found to be 20.9%. Further, in data set [2], the viability at 28.5 h, 1 µM came to 99.1%; the viability at 28.5 h, 5 µM stood at 96.9%; the viability at 28.5 h, 10 µM was 86.9%. Besides, in data set [3], the activity at 1 µM came to 0.765%, the activity at 5 µM turned out to be 0.748% and the activity at 10 µM is 3.52%.
Turning to `N=C(N)SCc1csc(-c2ccc(Br)cc2)n1` [CBK017064C], in data set [1], the activity at 1 µM was 126%, the activity at 5 µM is 97.9% and the activity at 10 µM was found to be 33.1%. In data set [2], the viability at 28.5 h, 1 µM was found to be 90.5%; the viability at 28.5 h, 5 µM is 88.9%; the viability at 28.5 h, 10 µM amounted to 91.1%. Further, in data set [3], the activity at 1 µM came out at 80.7%, the activity at 5 µM was 91.3% and the activity at 10 µM was 25.6%.
Take `CC(=O)NC[C@H]1CN(c2ccc(C3=CC[S+]([O-])CC3)c(F)c2)C(=O)O1` (stereo partly drawn) [CBK017555]: in data set [1], the activity at 1 µM is 134%, the activity at 5 µM was determined as 11.9% and the activity at 10 µM worked out at 18.3%. For the same compound, in data set [2], the viability at 28.5 h, 1 µM was determined as 88%; the viability at 28.5 h, 5 µM is 95.4%; the viability at 28.5 h, 10 µM came out at 86.3%. Besides, in data set [3], the activity at 1 µM is 85.7%, the activity at 5 µM was found to be 7.09% and the activity at 10 µM was 1.05%.
As to `CC(NC(C)(C)C)C(O)COc1ccc(Cl)c2c1C1CCC2CC1` (stereo not drawn) [CBK017752C], in data set [1], the activity at 1 µM came out at 125%, the activity at 5 µM worked out at 126% and the activity at 10 µM was 66.4%. Also, in data set [2], the viability at 28.5 h, 1 µM is 90.2%; the viability at 28.5 h, 5 µM was determined as 95%; the viability at 28.5 h, 10 µM stood at 92.2%. In data set [3], the activity at 1 µM turned out to be 68%, the activity at 5 µM was determined as 78.7% and the activity at 10 µM amounted to 17.5%.
As for `O=C(CCN1CCCCC1)Nc1ccc2c(=O)n3c(nc2c1)/C(=C/c1ccccc1)CC3` [CBK017786], in data set [1], the activity at 1 µM stood at 142%, the activity at 5 µM was 56.7% and the activity at 10 µM came out at 26.3%. Moreover, in data set [2], the viability at 28.5 h, 1 µM is 91.6%; the viability at 28.5 h, 5 µM worked out at 90.4%; the viability at 28.5 h, 10 µM worked out at 92.6%. In addition, in data set [3], the activity at 1 µM was found to be 109%, the activity at 5 µM was 20.7% and the activity at 10 µM came to 10.4%.
On to `Cc1ccc(OCc2ccccc2)c(C(CCN(C(C)C)C(C)C)c2ccccc2)c1` (stereo not drawn) [CBK017906], for which, in data set [1], the activity at 1 µM amounted to 148%, the activity at 5 µM was found to be 124% and the activity at 10 µM was determined as 61.5%. Also, in data set [2], the viability at 28.5 h, 1 µM amounted to 91.6%; the viability at 28.5 h, 5 µM amounted to 92.3%; the viability at 28.5 h, 10 µM was 86%. For the same compound, in data set [3], the activity at 1 µM worked out at 112%, the activity at 5 µM was found to be 73.2% and the activity at 10 µM was 22%.
Consider `CC(=O)NC[C@H]1CN(c2ccc(-c3nnc(C(C)O)s3)c(F)c2)C(=O)O1` (stereo partly drawn) [CBK017968], for which, in data set [1], the activity at 1 µM was found to be 51.4%, the activity at 5 µM amounted to 2.06% and the activity at 10 µM was 5.93%. Further, in data set [2], the viability at 28.5 h, 1 µM came to 91.4%; the viability at 28.5 h, 5 µM is 90.3%; the viability at 28.5 h, 10 µM was determined as 90.8%. Besides, in data set [3], the activity at 1 µM is 46.6%, the activity at 5 µM turned out to be 0.644% and the activity at 10 µM was 0.166%.
For the compound `Cc1noc(-c2ccc3c(c2O)OCCO3)c1-c1ccc(Cl)cc1` [CBK018086], in data set [1], the activity at 1 µM was 62.5%, the activity at 5 µM is 3.44% and the activity at 10 µM stood at 2.13%. For the same compound, in data set [2], the viability at 28.5 h, 1 µM is 96.5%; the viability at 28.5 h, 5 µM was 97.6%; the viability at 28.5 h, 10 µM came out at 99%. Besides, in data set [3], the activity at 1 µM turned out to be 73.6%, the activity at 5 µM was 0.782% and the activity at 10 µM was 0.691%.
For the compound `CC(=O)NC[C@H]1CN(c2ccc3c(c2)CCN(C(C)=O)CC3)C(=O)O1` [CBK018491], in data set [1], the activity at 1 µM turned out to be 112%, the activity at 5 µM amounted to 8.52% and the activity at 10 µM came out at 0.0674%. In data set [2], the viability at 28.5 h, 1 µM is 91.8%; the viability at 28.5 h, 5 µM was 95.1%; the viability at 28.5 h, 10 µM amounted to 112%. Besides, in data set [3], the activity at 1 µM stood at 57.6%, the activity at 5 µM came to 10.2% and the activity at 10 µM is 1.08%.
For `CC(=O)NC[C@H]1CN(c2ccc3c(c2)CCN(C(=O)Oc2ccccc2)CC3)C(=O)O1` [CBK018498], in data set [1], the activity at 1 µM was determined as 125%, the activity at 5 µM stood at 13.7% and the activity at 10 µM was 1.02%. In data set [2], the viability at 28.5 h, 1 µM is 98.7%; the viability at 28.5 h, 5 µM worked out at 94.2%; the viability at 28.5 h, 10 µM is 97.3%. For the same compound, in data set [3], the activity at 1 µM is 72.8%, the activity at 5 µM turned out to be 12.5% and the activity at 10 µM came to 3.33%.
On to `CC(=O)NC[C@H]1CN(c2ccc3c(c2)CCN(C(=O)Cc2ccccc2)CC3)C(=O)O1` [CBK018499], for which, in data set [1], the activity at 1 µM was 37.5%, the activity at 5 µM was 2.41% and the activity at 10 µM came to 5.46%. In addition, in data set [2], the viability at 28.5 h, 1 µM stood at 92.9%; the viability at 28.5 h, 5 µM amounted to 95.9%; the viability at 28.5 h, 10 µM is 92.1%. In data set [3], the activity at 1 µM was 38%, the activity at 5 µM came out at 0.495% and the activity at 10 µM was 0.215%.
Turning to `CCCCc1ccc(Nc2csc(N)n2)cc1` [CBK020594], in data set [1], the activity at 1 µM was 67.9%, the activity at 5 µM amounted to 10.8% and the activity at 10 µM is 6.72%. For the same compound, in data set [2], the viability at 28.5 h, 1 µM turned out to be 89.3%; the viability at 28.5 h, 5 µM is 84.9%; the viability at 28.5 h, 10 µM turned out to be 76.9%. Further, in data set [3], the activity at 1 µM amounted to 58.1%, the activity at 5 µM stood at 0.609% and the activity at 10 µM turned out to be 0.496%.
With `C1=C(CCNCCc2ccccc2)c2ccccc2C12CCCC2` [CBK024723], in data set [1], the activity at 1 µM was 137%, the activity at 5 µM stood at 49.2% and the activity at 10 µM was 3.86%. Besides, in data set [2], the viability at 28.5 h, 1 µM is 96.5%; the viability at 28.5 h, 5 µM worked out at 89.8%; the viability at 28.5 h, 10 µM was found to be 97.2%. Also, in data set [3], the activity at 1 µM is 112%, the activity at 5 µM was 42.8% and the activity at 10 µM is 0.759%.
With `CN1CCCN(c2cc(C(F)(F)F)c3scc(C(=O)NCc4cccc(F)c4F)c3n2)CC1` [CBK036386T], in data set [1], the activity at 1 µM stood at 124%, the activity at 5 µM came to 97.2% and the activity at 10 µM was 57.7%. Besides, in data set [2], the viability at 28.5 h, 1 µM was 99%; the viability at 28.5 h, 5 µM turned out to be 101%; the viability at 28.5 h, 10 µM was 101%. Besides, in data set [3], the activity at 1 µM was 69.4%, the activity at 5 µM was determined as 59.6% and the activity at 10 µM was determined as 46.9%.
On to `Cc1ccc2[nH]c3c(c2c1)CCOC31CCN(Cc2ccccc2-c2ccccc2)CC1` [CBK039915], for which, in data set [1], the activity at 1 µM is 69.3%, the activity at 5 µM is 33.8% and the activity at 10 µM was found to be 27.9%. In addition, in data set [2], the viability at 28.5 h, 1 µM came to 99.1%; the viability at 28.5 h, 5 µM worked out at 93.6%; the viability at 28.5 h, 10 µM was 100%. Also, in data set [3], the activity at 1 µM came out at 27.9%, the activity at 5 µM stood at 15.9% and the activity at 10 µM stood at 7.2%.
`Fc1cc(CN2CCC3(CC2)OCCc2c3[nH]c3ccc(Br)cc23)cc(F)c1F` [CBK039943]: in data set [1], the activity at 1 µM came out at 121%, the activity at 5 µM was 66.6% and the activity at 10 µM was 46.8%. In data set [2], the viability at 28.5 h, 1 µM was 98.2%; the viability at 28.5 h, 5 µM was determined as 92.1%; the viability at 28.5 h, 10 µM was 90.4%. Further, in data set [3], the activity at 1 µM stood at 102%, the activity at 5 µM was found to be 32.3% and the activity at 10 µM stood at 21.4%.
Turning to `CC(C)c1ccc(S(=O)(=O)Nc2cccc(SC(F)(F)F)c2)cc1` [CBK044581], in data set [1], the activity at 1 µM worked out at 113%, the activity at 5 µM came out at 76% and the activity at 10 µM came out at 82.6%. In addition, in data set [2], the viability at 28.5 h, 1 µM was 96.5%; the viability at 28.5 h, 5 µM is 95.7%; the viability at 28.5 h, 10 µM stood at 103%. Further, in data set [3], the activity at 1 µM stood at 116%, the activity at 5 µM is 69.4% and the activity at 10 µM worked out at 80.6%.
On to `CCc1nnc(NS(=O)(=O)c2ccc(NC(=S)Nc3ccc(F)cc3)cc2)s1` [CBK050037], for which, in data set [1], the activity at 1 µM was 72%, the activity at 5 µM came to 22.8% and the activity at 10 µM stood at 13.7%. For the same compound, in data set [2], the viability at 28.5 h, 1 µM was determined as 98.2%; the viability at 28.5 h, 5 µM is 89.3%; the viability at 28.5 h, 10 µM came to 93.2%. Besides, in data set [3], the activity at 1 µM amounted to 98.5%, the activity at 5 µM was determined as 26.5% and the activity at 10 µM was 17.6%.

Broadly, the viability is a read-out of living cells in per cent, often relative to untreated cells.
